Consider 14 compounds from patent US20180194762A1 (Pharmacyclics LLC, priority 2017, published 2018).

Holding throughout (type): biochemical
One assay addresses T1, Btk (Homo sapiens, UniProt Q06187).
T1 construct: purified from insect cells as a full-length construct containing a N-terminal 6X-His tag; His6 (N); made in house; host or cells: insect cells (Method C)
The assay is described as follows: Btk in vitro inhibitory activity (one of Method A TR-FRET, Method B electrophoretic mobility shift, Method C radiometric filter binding). The essentials: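 Three alternative formats were used. A radiometric filter-binding read used 8 nM full-length His-BTK with 0.2 mg/mL poly(Glu-Tyr) 4:1 (C); microfluidic separation of 1 μM FAM-peptide by 1 nM BTK gave IC50 from 12-point curves (B); TR-FRET at Km ATP, 0.5 nM Btk, gave Ki(app)-derived IC50 (A).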

A further assay addresses T2, TEC (Homo sapiens, UniProt P42680).
T2 sequence (P42680 1-631): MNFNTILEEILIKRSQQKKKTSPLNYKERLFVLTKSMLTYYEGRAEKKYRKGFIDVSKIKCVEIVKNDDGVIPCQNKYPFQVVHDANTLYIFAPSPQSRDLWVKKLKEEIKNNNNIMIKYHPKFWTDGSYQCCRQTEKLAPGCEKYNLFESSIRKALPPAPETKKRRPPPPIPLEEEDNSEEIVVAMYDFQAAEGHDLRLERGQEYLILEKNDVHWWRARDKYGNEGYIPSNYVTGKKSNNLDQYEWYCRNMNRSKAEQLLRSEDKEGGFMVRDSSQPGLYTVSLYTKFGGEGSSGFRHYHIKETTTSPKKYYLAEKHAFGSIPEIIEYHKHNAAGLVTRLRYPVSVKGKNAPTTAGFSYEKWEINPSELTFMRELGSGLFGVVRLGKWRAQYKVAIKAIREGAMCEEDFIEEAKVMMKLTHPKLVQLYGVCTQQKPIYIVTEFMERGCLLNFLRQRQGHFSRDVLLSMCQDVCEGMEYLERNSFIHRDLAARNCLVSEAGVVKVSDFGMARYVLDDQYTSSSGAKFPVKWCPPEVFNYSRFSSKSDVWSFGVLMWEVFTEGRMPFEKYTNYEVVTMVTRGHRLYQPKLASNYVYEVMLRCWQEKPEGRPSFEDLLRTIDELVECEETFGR
As to the kind of experiment: Inhibition of a panel of kinases (in vitro HotSpot kinase assay, 33P-ATP, 1 μM ATP). Conditions: for IC50: HotSpot kinase assay, 1 μM ATP; for TEC/Btk: ratio of TEC IC50 to Btk IC50 (selectivity). An outline of the steps:
(§1)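 Radiometric read-out: 33P transfer to a suitable substrate by each purified enzyme, ATP at 1 μM. Values are degree of inhibition.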

For a further assay, the target named is T3, panel of kinases (Homo sapiens, UniProt P51813).
T3 sequence (P51813 1-675): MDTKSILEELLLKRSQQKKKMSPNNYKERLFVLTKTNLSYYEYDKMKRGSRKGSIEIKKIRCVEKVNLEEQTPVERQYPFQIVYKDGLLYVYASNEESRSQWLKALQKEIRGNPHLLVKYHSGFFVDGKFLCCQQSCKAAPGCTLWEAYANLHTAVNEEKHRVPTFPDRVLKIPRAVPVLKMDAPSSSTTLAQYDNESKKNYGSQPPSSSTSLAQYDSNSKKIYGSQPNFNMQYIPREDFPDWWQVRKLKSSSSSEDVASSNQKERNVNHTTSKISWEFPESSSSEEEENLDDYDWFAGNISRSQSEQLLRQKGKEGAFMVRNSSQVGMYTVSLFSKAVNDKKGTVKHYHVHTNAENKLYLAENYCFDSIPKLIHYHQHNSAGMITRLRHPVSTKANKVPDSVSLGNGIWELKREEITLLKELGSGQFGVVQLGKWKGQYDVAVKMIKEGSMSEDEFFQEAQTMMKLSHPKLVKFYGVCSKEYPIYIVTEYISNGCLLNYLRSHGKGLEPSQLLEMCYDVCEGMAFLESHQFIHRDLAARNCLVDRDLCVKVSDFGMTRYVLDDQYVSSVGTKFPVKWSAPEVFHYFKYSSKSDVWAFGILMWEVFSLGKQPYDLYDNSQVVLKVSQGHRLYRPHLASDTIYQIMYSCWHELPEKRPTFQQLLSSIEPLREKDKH
The assay is described as follows: Inhibition of a panel of kinases (in vitro HotSpot kinase assay, 33P-ATP, 1 μM ATP), other kinases. Conditions: BMX wild-type, read-out: BMX-WT IC50. An outline of the steps:
as §1

The mark [1] stands for this setting: wild-type Btk, read-out: Btk-WT IC50.
The mark [2] stands for this setting: method is one of A, B or C, not stated which, read-out: IC50 values against Btk.

Molecules are shown by their SMILES. Read-outs that look alike come from different tables or passages of the source.

T1 sequence (Q06187 whole entry): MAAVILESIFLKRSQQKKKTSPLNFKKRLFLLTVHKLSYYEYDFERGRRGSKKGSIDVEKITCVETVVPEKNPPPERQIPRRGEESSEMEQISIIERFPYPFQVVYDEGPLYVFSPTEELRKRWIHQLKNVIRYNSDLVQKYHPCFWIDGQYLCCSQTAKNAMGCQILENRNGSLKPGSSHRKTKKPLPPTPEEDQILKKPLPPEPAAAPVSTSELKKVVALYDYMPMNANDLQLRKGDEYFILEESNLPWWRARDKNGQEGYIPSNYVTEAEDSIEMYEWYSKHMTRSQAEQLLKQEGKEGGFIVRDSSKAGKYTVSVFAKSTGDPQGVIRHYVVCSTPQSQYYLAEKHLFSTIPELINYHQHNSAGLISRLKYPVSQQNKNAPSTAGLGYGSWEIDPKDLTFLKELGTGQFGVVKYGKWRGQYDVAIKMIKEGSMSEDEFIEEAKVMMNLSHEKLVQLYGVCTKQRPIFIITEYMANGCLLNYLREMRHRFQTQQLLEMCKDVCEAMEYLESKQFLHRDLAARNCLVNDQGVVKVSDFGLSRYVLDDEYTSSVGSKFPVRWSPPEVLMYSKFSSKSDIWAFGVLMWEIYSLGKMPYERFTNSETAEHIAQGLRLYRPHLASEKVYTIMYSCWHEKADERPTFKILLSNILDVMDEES

For `C[C@H]1CC[C@@H](Nc2n[nH]c3nccc(-c4ccc(CNC(=O)c5nc(C(C)(C)C)no5)c(F)c4)c23)CN1C(=O)n1ccnc1` [Example 196, 3-tert-butyl-N-{[2-fluoro-4-(3-{[(3R,6S)-1-(1H-imidazole-1-carbonyl)-6-methylpiperidin-3-yl]amino}-1H-pyrazolo[3,4-b]pyridin-4-yl)phenyl]methyl}-1,2,4-oxadiazole-5-carboxamide], the results for the IC50 at Btk (setting [1]), against TEC and on panel of kinases were 1.96 nM, 1600 nM and 3430 nM, respectively. The TEC/Btk at TEC was found to be 816.

With `CC#CC(=O)N1CC[C@@H](Nc2n[nH]c3nccc(-c4ccc(CNC(=O)c5ccc(OC)cc5)c(F)c4)c23)C1` [Example 112, N-{[4-(3-{[(3R)-1-(but-2-ynoyl)pyrrolidin-3-yl]amino}-1H-pyrazolo[3,4-b]pyridin-4-yl)-2-fluorophenyl]methyl}-4-methoxybenzamide], the concentration for half-maximal inhibition (IC50) at Btk (setting [2]) is less than 10 nM; on Btk (setting [1]), 4.07 nM; against TEC it was 100 nM; on panel of kinases, 48 nM. At TEC, the TEC/Btk is recorded as 24.

`CC#CC(=O)N1CC[C@@H](Nc2n[nH]c3nccc(-c4ccc(CNC(=O)c5noc(C(C)(C)C)n5)c(F)c4)c23)C1` [Example 24, N-{[4-(3-{[(3R)-1-(but-2-ynoyl)pyrrolidin-3-yl]amino}-1H-pyrazolo[3,4-b]pyridin-4-yl)-2-fluorophenyl]methyl}-5-tert-butyl-1,2,4-oxadiazole-3-carboxamide]: the IC50 is less than 10 nM at Btk (setting [2]), 0.139 nM on Btk (setting [1]), 22 nM on TEC and 44 nM on panel of kinases.

As for `C=CC(=O)N1CC[C@@H](Nc2n[nH]c3nccc(-c4ccc(CNC(=O)c5cc6c(n5C)CC(C)(C)C6)c(F)c4)c23)C1` [Example 158, N-{[2-fluoro-4-(3-{[(3R)-1-(prop-2-enoyl)pyrrolidin-3-yl]amino}-1H-pyrazolo[3,4-b]pyridin-4-yl)phenyl]methyl}-1,5,5-trimethyl-1H,4H,5H,6H-cyclopenta[b]pyrrole-2-carboxamide], the IC50 on Btk (setting [2]) was less than 10 nM; on Btk (setting [1]), 7.71 nM; against TEC, 394 nM; on panel of kinases it was 170 nM. The TEC/Btk on TEC is 51.

As for `C[C@@H](NC(=O)c1nc(C(C)(C)C)no1)c1ccc(-c2ccnc3[nH]nc(N4CCOCC4)c23)cc1` [Example 219, 3-tert-butyl-N-[(1R)-1-{4-[3-(morpholin-4-yl)-1H-pyrazolo[3,4-b]pyridin-4-yl]phenyl}ethyl]-1,2,4-oxadiazole-5-carboxamide], the figures for the IC50 on Btk (setting [1]), against TEC and at panel of kinases were 0.186 nM, 781 nM and 582 nM, respectively. Besides, at TEC, the TEC/Btk was 4199.

`CN(C)C(=O)N[C@@H]1CCN(c2n[nH]c3nccc(-c4ccc(CNC(=O)c5noc(C(C)(C)C)n5)c(F)c4)c23)C1` [Example 132, 5-tert-butyl-N-[(4-{3-[(3R)-3-[(dimethylcarbamoyl)amino]pyrrolidin-1-yl]-1H-pyrazolo[3,4-b]pyridin-4-yl}-2-fluorophenyl)methyl]-1,2,4-oxaidazole-3-carboxamide]: the half-inhibitory concentration (IC50) at Btk (setting [2]) is less than 10 nM; at Btk (setting [1]) it was 0.889 nM; against TEC, 806 nM; on panel of kinases, 1280 nM. For the same compound, the TEC/Btk at TEC turned out to be 907.

Turning to `C=CC(=O)N1CCC[C@@H](Nc2n[nH]c3nccc(-c4ccc(CNC(=O)c5cc(CC(C)C)on5)c(F)c4)c23)[C@H]1C` [Example 293, N-{[2-fluoro-4-(3-{[(2R,3R)-2-methyl-1-(prop-2-enoyl)piperidin-3-yl]amino}-1H-pyrazolo[3,4-b]pyridin-4-yl)phenyl]methyl}-5-(2-methylpropyl)-1,2-oxazole-3-carboxamide], the IC50 at Btk (setting [1]) worked out at 1.76 nM; against TEC it was 59.4 nM; at panel of kinases it was 46.1 nM.

For the compound `C=CC(=O)N1CC[C@@H](Nc2n[nH]c3nccc(-c4cccc(NC(=O)c5noc(C(C)(C)C)n5)c4CO)c23)C1` [Example 160, 5-tert-butyl-N-[2-(hydroxymethyl)-3-(3-{[(3R)-1-(prop-2-enoyl)pyrrolidin-3-yl]amino}-1H-pyrazolo[3,4-b]pyridin-4-yl)phenyl]-1,2,4-oxadiazole-3-carboxamide], the values for the IC50 on Btk (setting [1]), against TEC and on panel of kinases were 37.3 nM, 922 nM and 444 nM, respectively. In addition, the TEC/Btk on TEC is 25.

Take `C=CC(=O)N1CC[C@@H](Nc2n[nH]c3nccc(-c4ccc(CNC(=O)c5ccccc5)c(F)c4)c23)C1` [Compound 33, (R)—N-(4-(3-((1-acryloylpyrrolidin-3-yl)amino)-1H-pyrazolo[3,4-b]pyridin-4-yl)-2-fluorobenzyl)benzamide]: the results for the IC50 at Btk (setting [1]), against TEC and at panel of kinases were 15 nM, 217 nM and 25 nM, respectively. Moreover, on TEC, the TEC/Btk was 14.

Turning to `CC(C)(C)c1nc(C(=O)NC(C)(C)c2ccc(-c3ccnc4[nH]nc(N[C@@H]5CCNC5)c34)cc2)no1` [Example 122, 5-tert-butyl-N-{2-[4-(3-{[(3R)-pyrrolidin-3-yl]amino}-1H-pyraozlo[3,4-b]pyridin-4-yl)phenyl]propan-2-yl}-1,2,4-oxadiazole-3-carboxamide], the IC50 on Btk (setting [1]), on TEC and on panel of kinases was more than 10000 nM in each case.

In the case of `C=CC(=O)N[C@H]1CC[C@@H](Nc2n[nH]c3nccc(-c4ccc(CNC(=O)c5noc(C(C)(C)C)n5)c(F)c4)c23)CC1` [Example 154, 5-tert-butyl-N-{[2-fluoro-4-(3-{[(1s,4s)-4-(prop-2-enamido)cyclohexyl]amino}-1H-pyrazolo[3,4-b]pyridin-4-yl)phenyl]methyl}-1,2,4-oxadiazole-3-carboxamide], the IC50 was less than 10 nM at Btk (setting [2]), 0.237 nM at Btk (setting [1]), 409 nM at TEC and 229 nM at panel of kinases. Also, on TEC, the TEC/Btk is on record as 1726.

Consider `CC1(C)Cc2cc(C(=O)NCc3ccc(-c4ccnc5[nH]nc(N[C@@H]6CCNC6)c45)cc3F)[nH]c2C1` [Example 149, N-{[2-fluoro-4-(3-{[(3R)-pyrrolidin-3-yl]amino}-1H-pyrazolo[3,4-b]pyridin-4-yl)phenyl]methyl}-5,5-dimethyl-1H,4H,5H,6H-cyclopenta[b]pyrrole-2-carboxamide], for which the IC50 is 739 nM on Btk (setting [1]), more than 10000 nM on TEC and more than 10000 nM on panel of kinases. The TEC/Btk at TEC was more than 100.

`C=CC(=O)N1CC(Nc2n[nH]c3nccc(-c4ccc(CNC(=O)c5noc(C(C)(C)C)n5)c(F)c4)c23)C1` [Example 107, 5-tert-butyl-N-{[2-fluoro-4-(3-{[1-(prop-2-enoyl)azetidin-3-yl]amino}-1H-pyrazolo[3,4-b]pyridin-4-yl)phenyl]methyl}-1,2,4-oxadiazole-3-carboxamide]: the 50% inhibitory concentration (IC50) on Btk (setting [1]) is 528 nM; on TEC, more than 10000 nM; at panel of kinases, more than 10000 nM. Further, the TEC/Btk at TEC is reported as more than 100.

Regarding `CC(C)(C)c1ncc(C(=O)NCc2ccc(-c3ccnc4[nH]nc(N[C@H]5CC[C@H](O)CC5)c34)cc2F)o1` [Compound 39, 2-tert-butyl-N-{[2-fluoro-4-(3-{[(1r,4r)-4-hydroxycyclohexyl]amino}-1H-pyrazolo[3,4-b]pyridin-4-yl)phenyl]methyl}-1,3-oxazole-5-carboxamide], the figures for the concentration for half-maximal inhibition (IC50) at Btk (setting [1]), against TEC and on panel of kinases were 63.6 nM, 4680 nM and 3820 nM, respectively. Besides, the TEC/Btk on TEC was 74.
